Measurements from patent US9029368B2, “3,7-disubstituted octahydro-2H-pyrido[4,3-E][1,3]oxazin-2-one antibiotics” (Actelion Pharmaceuticals Ltd., priority 2011, dated 2015).
≈ marks a conversion by molar mass, not a printed value.

These compounds were tested on S. aureus 29213 (assay: Bacterial growth minimal inhibitory concentrations (microdilution in cation-adjusted Mueller-Hinton Broth, CLSI M7-A7)). Details: Staphylococcus aureus, 29213, microdilution method.
Assay type: cell-based
Procedure: Bacterial Growth Minimal Inhibitory Concentrations: Minimal inhibitory concentrations (MICs; mg/l) were determined in cation-adjusted Mueller-Hinton Broth by a microdilution method following the description given in “Methods for Dilution Antimicrobial Susceptibility Tests for Bacteria that Grow Aerobically”, Approved standard, 7th ed., Clinical and Laboratory Standards Institute (CLSI) Document M7-A7, Wayne, Pa., USA, 2006. All Example compounds were tested against several Gram positive and Gram negative bacteria.

Compound | MIC [µg/mL]
COc1ccc2ncc(F)c([C@@H](O)CN3CC[C@@H]4CN(c5ccc6c(c5)OCCO6)C(=O)O[C@H]4C3)c2n1 (mixture of isomers) [Example 13, (4aR*,8aR*)-3-(2,3-dihydro-benzo[1,4]dioxin-6-yl)-7-[(R)-2-(3-fluoro-6-methoxy-[1,5]naphthyridin-4-yl)-2-hydroxy-ethyl]-octahydro-pyrido[4,3-e][1,3]oxazin-2-one] | 0.063
COc1ccc2nccc(CCN3CC[C@@H]4CN(c5ccc6c(c5)OCCO6)C(=O)O[C@H]4C3)c2n1 (racemic) [Example 4, rac-(4aR*,8aR*)-3-(2,3-dihydro-benzo[1,4]dioxin-6-yl)-7-[2-(6-methoxy-[1,5]naphthyridin-4-yl)-ethyl]-octahydro-pyrido[4,3-e][1,3]oxazin-2-one] | 0.063 (≈ 0.132 µM)
COc1ccc2ncc(F)c(C(O)CN3CC[C@@H]4CN(c5ccc6c(c5)OCCO6)C(=O)O[C@H]4C3)c2n1 (mixture of isomers) [Example 6, (4aR*,8aR*)-3-(2,3-dihydro-benzo[1,4]dioxin-6-yl)-7-[(2RS)-2-(3-fluoro-6-methoxy-[1,5]naphthyridin-4-yl)-2-hydroxy-ethyl]-octahydro-pyrido[4,3-e][1,3]oxazin-2-one] | 0.063 (≈ 0.123 µM)
COc1ccc2ncc(F)c(CCN3CC[C@H]4CN(c5ccc6c(c5)OCCO6)C(=O)O[C@@H]4C3)c2n1 (single isomer, unassigned) [Example 2] | ≤ 0.031

Second part, the compound after the results:

MIC [µg/mL] | Compound
0.063 (≈ 0.128 µM) | COc1cnc2cccc(C(O)CN3CC[C@@H]4CN(c5ccc6c(c5)OCCO6)C(=O)O[C@H]4C3)c2n1 (mixture of isomers) [Example 18, (4aR*,8aR*)-3-(2,3-dihydro-benzo[1,4]dioxin-6-yl)-7-[(2RS)-2-hydroxy-2-(3-methoxy-quinoxalin-5-yl)-ethyl]-octahydro-pyrido[4,3-e][1,3]oxazin-2-one]
0.063 (≈ 0.123 µM) | COc1cnc2ccc(F)c(C(O)CN3CC[C@@H]4CN(c5ccc6c(c5)OCCO6)C(=O)O[C@H]4C3)c2n1 (mixture of isomers) [Example 17, (4aR*,8aR*)-3-(2,3-dihydro-benzo[1,4]dioxin-6-yl)-7-[(2RS)-2-(6-fluoro-3-methoxy-quinoxalin-5-yl)-2-hydroxy-ethyl]-octahydro-pyrido[4,3-e][1,3]oxazin-2-one]
0.25 (≈ 0.495 µM) | COc1ccc2ccc(=O)n(CCN3CC[C@@H]4CN(c5ccc6c(c5)NC(=O)CO6)C(=O)O[C@H]4C3)c2n1 (racemic) [Example 34, rac-(4aR*,8aR*)-7-(2-(7-methoxy-2-oxo-1,8-naphthyridin-1(2H)-yl)ethyl)-3-(3-oxo-3,4-dihydro-2H-benzo[b][1,4]oxazin-6-yl)octahydro-2H-pyrido[4,3-e][1,3]oxazin-2-one]
0.063 (≈ 0.123 µM) | COc1ccc2ncc(F)c([C@H](O)CN3CC[C@@H]4CN(c5ccc6c(c5)OCCO6)C(=O)O[C@H]4C3)c2n1 (single isomer, unassigned) [Example 15]
